In article PMC9530166, “Allosteric regulation of glycogen breakdown by the second messenger cyclic di-GMP” (Nature Communications, 2022):

What was measured:
Format in all cases: binding, Streptomyces venezuelae
His6-GlgXDETR(49-52) = test: DRaCALA with [32P]-c-di-GMP, RETD49-52 swap mutant; conditions: His6-GlgXDETR(49-52) mutant
Experimental: (§1) For DRaCALA assays, purified His6-GlgX (15 μg) was mixed with 0.5 μl undiluted [^32P]-c-di-GMP (42 nM) (Hartmann Analytic GmbH, Braunschweig) in binding buffer (25 mM Tris pH 8; 150 mM NaCl; 2.5% (v/v) glycerol; 5 mM MgCl2) and the reaction was incubated at rt for 5 min. For competition assays, 100 μM nonlabeled nucleotides were added to the samples and incubated at rt for 5 min prior to the addition of [^32P]-c-di-GMP. Reactions (10 μl) were spotted on the same nitrocellulose membrane (Roth), air dried for 10 min and analyzed via phosphorimaging.
217 Supplementary Fig. 5: NanoDSF assays with mutagenized His6-GlgX variants. (a) Swap of the
219 This was confirmed by DRaCALA, right. For DRaCALA assays, 15 µg of purified E. coli His6-GlgX
220 or His6-Vnz25270, respectively, were mixed with 0.5 µl of [32P]-c-di-GMP (Hartmann Analytic
221 GmbH, Braunschweig) in binding buffer (25 mM Tris pH 8.0, 150 mM NaCl, 2.5% (v/v) glycerol
222 and 5 mM MgCl2). 10 µl of the reactions were spotted on the same nitrocellulose membrane (Roth),
223 air dried for 10 min and analyzed by phosphorimaging. (b) Changing the RLVD motif (amino acids
(§2) (1 picture or pasted object on this page, not shown here)

His6-Vnz25270 = test: nanoDSF thermal shift assay, GlgX paralog Vnz25270; conditions: 10 µM His6-Vnz25270, 1 mM c-di-GMP
Experimental: (§3) For label-free thermal shift assay experiments, 10 μM purified protein in 25 mM Tris pH 8, 150 mM NaCl, 2.5% (v/v) glycerol, and 5 mM MgCl2 was incubated without or with (1 mM) of nonlabeled c-di-GMP or c-di-AMP, respectively, at rt for 10 min. Reactions were subsequently analyzed in a Tycho NT.6 (NanoTemper Technologies) device with a 30 K/min thermal ramp and the internal fluorescence at 330 and 350 nm was recorded. Data analysis and calculation of derivatives was done using the internal evaluation features of the Tycho instrument.
(a) 15 µg of purified E. coli His6-GlgX
167 or His6-Vnz25270, respectively, were mixed with 0.5 µl of [32P]-c-di-GMP (Hartmann Analytic
168 GmbH, Braunschweig) in binding buffer (25 mM Tris pH 8.0, 150 mM NaCl, 2.5% (v/v) glycerol
169 and 5 mM MgCl2). 10 µL of the reactions were spotted on the same nitrocellulose membrane (Roth),
170 air dried for 10 min and analyzed by phosphorimaging. (b, c) 10 µM purified His6-Vnz25270 (b) or
171 His6-GlgXE.coli (c) in 25 mM Tris pH 8.0, 150 mM NaCl, 2.5% (v/v) glycerol and 5 mM MgCl2 were
172 incubated without or with (1 mM) c-di-GMP. Reactions were analyzed in a Tycho NT.6
173 (NanoTemper Technologies) device.
as §2

His6-GlgX (Vnz29170) = test: nanoDSF label-free thermal shift assay, wild-type GlgX; conditions: 10 µM GlgX, 1 mM ligand; without ligand 51.5 °C
Experimental: (§4) Fig. 1 GlgX binds c-di-GMP. a Quantification of c-di-GMP in S. venezuelae cell extracts using LC-MS/MS. Cells were harvested during late vegetative growth (8–10 h), transition to sporulation (12–16 h), and sporulation (18–20 h). Data are presented as the mean of biological replicates ±SD (n = 3). […] Source data are provided in the Source data file. c [^32P]-c-di-GMP binds to GlgX in DRaCALA assay indicated by dark spots in the center of the nitrocellulose membrane. For competition, excess (100 µM) of unlabeled c-di-GMP, c-di-AMP, or GTP was added to the reaction containing [^32P]-c-di-GMP and GlgX.
To determine if the interaction between Vnz29170 (herein called GlgX) and c-di-GMP is direct, we purified an N-terminally His6-tagged GlgX protein and performed nano differential scanning fluorimetry (nanoDSF) thermal shift assays. […]
as §3, with “Data analysis and calculation of derivatives was done using the internal evaluation features of the Tycho instrument.” left out

His6-GlgX = test: DRaCALA with [32P]-c-di-GMP, wild-type GlgX
Experimental: as §4
To determine if the interaction between Vnz29170 (herein called GlgX) and c-di-GMP is direct, we purified an N-terminally His6-tagged GlgX protein and performed nano differential scanning fluorimetry (nanoDSF) thermal shift assays. […] In addition, we used differential radial capillary action of ligand assays (DRaCALA), which allows visualization of protein-bound radiolabeled ligand as a central spot after the application of the protein-ligand mix onto nitrocellulose. Using DRaCALA we confirmed that GlgX from S. venezuelae binds ^32P-labeled c-di-GMP.
as §1

SMILES: Nc1nc2c(ncn2[C@@H]2O[C@@H]3CO[P@](=O)(O)O[C@H]4[C@@H](O)[C@H](n5cnc6c(=O)[nH]c(N)nc65)O[C@@H]4CO[P@](=O)(O)O[C@H]3[C@H]2O)c(=O)[nH]1 [c-di-GMP, bis-(3′−5′)-cyclic diguanosine monophosphate]
- binding of c-di-GMP in DRaCALA (His6-GlgXDETR(49-52)): does not bind c-di-GMP
- interaction with c-di-GMP by nanoDSF (His6-Vnz25270): did not detect any interactions
- melting point of His6-GlgX in the presence of ligand (His6-GlgX (Vnz29170)): 55.8 °C
- binding of 32P-labeled c-di-GMP in DRaCALA (His6-GlgX; 15 µg His6-GlgX, [32P]-c-di-GMP): binds
- competition with 32P-c-di-GMP for binding to GlgX (His6-GlgX; excess (100 µM) unlabeled nucleotide): competed
